Measurements taken from patent publication US20140023611A1 (priority 2010, published 2014).

How the values were obtained:
human NaP2b (SLC34A2) = target: T1, human NaP2b (SLC34A2) (Homo sapiens, UniProt O95436); experiment: NaP2b-mediated Pi transport (33P uptake) in transfected HEK293 cells, human NaP2b; format: cell-based; conditions: Structure (II) examples, Table 2; HEK293, 0.1 mM phosphate; read-out: pIC50 range for human Nap2b (converted)
T1 construct: host or cells: HEK293
T1 sequence (O95436 1-690): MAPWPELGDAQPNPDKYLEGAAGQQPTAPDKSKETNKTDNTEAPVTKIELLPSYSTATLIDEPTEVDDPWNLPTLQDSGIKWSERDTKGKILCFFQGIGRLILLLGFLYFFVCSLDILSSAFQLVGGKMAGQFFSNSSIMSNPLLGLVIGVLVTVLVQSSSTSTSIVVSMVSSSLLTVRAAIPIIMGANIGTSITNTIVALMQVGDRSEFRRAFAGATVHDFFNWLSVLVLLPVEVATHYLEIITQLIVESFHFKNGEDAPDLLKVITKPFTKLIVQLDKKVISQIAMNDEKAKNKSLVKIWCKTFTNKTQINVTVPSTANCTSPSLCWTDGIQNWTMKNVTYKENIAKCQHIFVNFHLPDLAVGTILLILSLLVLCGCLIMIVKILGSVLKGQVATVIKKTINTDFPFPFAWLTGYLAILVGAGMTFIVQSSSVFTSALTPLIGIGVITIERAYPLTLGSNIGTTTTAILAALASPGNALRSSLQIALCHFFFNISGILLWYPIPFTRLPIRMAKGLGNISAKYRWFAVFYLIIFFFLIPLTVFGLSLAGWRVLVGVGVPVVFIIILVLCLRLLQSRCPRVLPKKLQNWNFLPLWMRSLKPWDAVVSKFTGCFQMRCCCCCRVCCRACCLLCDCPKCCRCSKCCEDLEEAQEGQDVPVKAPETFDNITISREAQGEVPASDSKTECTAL
Protocol: HEK293 cells were obtained from the American Type Culture collection and propagated per their instructions. Expression clones for rat and human NaP2b (SLC34A2) were obtained from Open Biosystems (Catalog numbers MRN1768-9510282, and MHS1010-99823026, respectively). The sequence of the human protein was mutated to insert a threonine after residue 37, and to introduce a N39D mutation.
The rate of phosphate (Pi) uptake into HEK293 cells was measured using a modification of the method described by Mohrmann et al. (Mohrmann, I., Mohrmann, M., Biber, J., and Murer, H. (1986) Am. J. Phys. 250(3 Pt 1):G323-30.) Transfected HEK293 cells were treated with a pharmacological agent to minimize endogenous PiT-mediated phosphate transport activity, such that the only remaining sodium-dependent phosphate transport activity is that which was bestowed by introduction of the NaP2b genes.
Cells were seeded into 96-well plates at 25,000 cells/well and cultured overnight. […]
After incubation for 3-30 minutes at room temperature, assay mixtures were removed, and the cells were washed twice with ice cold stop solution (137 mM sodium chloride, 14 mM Tris, pH 7.4). Cells were lysed by addition of 20 μL 0.1% Tween 80 followed by 100 μL scintillation fluid, and counted using a TopCount (Perkin Elmer).
pIC50 (the negative log of the IC50) values of the test compounds were calculated using GraphPad Prism.

[1] = Determination of compound Cmax and AUC after oral gavage (plasma LC-MS/MS); format: in vivo, Sprague-Dawley rats; conditions: Sprague-Dawley, rat, plasma, po, Structure (II) examples, Table 6, actual oral dose 7.6-11 mg/kg
How it was run: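 Plasma exposure measured by LC-MS/MS after acetonitrile precipitation with internal standard, quantified against a standard curve made in plasma. Compound given orally by gavage to Sprague-Dawley rats at nominal 2.5 or 10 mg/kg, with K2EDTA plasma sampled at 0.5, 1, 2 and 4 h.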

rat NaP2b (SLC34A2) = target: T2, rat NaP2b (SLC34A2) (Rattus norvegicus, UniProt Q9JJ09); experiment: NaP2b-mediated Pi transport (33P uptake) in transfected HEK293 cells, rat NaP2b; format: cell-based; conditions: Structure (II) examples, Table 2; HEK293, 0.1 mM phosphate; read-out: pIC50 range for rat Nap2b (converted)
T2 construct: host or cells: HEK293
T2 sequence (Q9JJ09 1-695): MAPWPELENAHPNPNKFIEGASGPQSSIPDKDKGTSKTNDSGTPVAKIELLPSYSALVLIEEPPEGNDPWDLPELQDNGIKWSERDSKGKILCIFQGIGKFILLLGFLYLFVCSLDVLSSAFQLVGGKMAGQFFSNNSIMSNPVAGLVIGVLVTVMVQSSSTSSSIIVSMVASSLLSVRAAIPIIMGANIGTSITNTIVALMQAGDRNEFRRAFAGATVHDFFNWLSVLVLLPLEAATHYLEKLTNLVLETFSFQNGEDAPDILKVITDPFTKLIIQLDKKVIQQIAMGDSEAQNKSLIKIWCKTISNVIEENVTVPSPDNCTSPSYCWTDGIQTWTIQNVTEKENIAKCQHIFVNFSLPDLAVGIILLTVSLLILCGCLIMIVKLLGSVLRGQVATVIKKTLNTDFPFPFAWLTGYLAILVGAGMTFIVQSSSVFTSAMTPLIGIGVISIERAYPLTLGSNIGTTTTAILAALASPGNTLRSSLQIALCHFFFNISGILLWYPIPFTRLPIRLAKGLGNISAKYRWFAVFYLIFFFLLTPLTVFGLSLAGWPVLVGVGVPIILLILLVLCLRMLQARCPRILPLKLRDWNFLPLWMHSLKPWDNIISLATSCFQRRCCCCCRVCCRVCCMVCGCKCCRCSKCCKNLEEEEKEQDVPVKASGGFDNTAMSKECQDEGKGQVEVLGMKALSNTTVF
How it was run: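 HEK293 cells transiently transfected with NaP2b cDNA, endogenous PiT transport suppressed; ^33P-phosphate uptake measured in sodium vs choline buffer (100 uM KH2PO4, pH 7.4) for 3–30 min at room temperature. Twelve concentrations, 0.1 nM–30 uM, in duplicate; uptake by scintillation counting, pIC50 calculated.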

- IC50 (human NaP2b (SLC34A2)): < 1 µM
- Cmax [1]: 3 ng/mL
- IC50 (rat NaP2b (SLC34A2)): < 1 µM
Structure (SMILES): O=C(O)CCOCCOCCOCCNC(=O)c1cccc(C(=O)Nc2ccc(Cl)cc2C(=O)Nc2ccn(-c3cccc(C(F)(F)F)c3)n2)c1 [Example 25]
